Experimental data published in patent US12729377B2, “RNAi agents and compositions for inhibiting expression of angiopoietin-like 3 (ANGPTL3), and methods of use” (Arrowhead Pharmaceuticals, Inc., priority 2017, dated 2026).
In the oligonucleotide strings, read from the 5' end, every base follows the letter of its sugar. An asterisk marks phosphorothioate; unmarked linkages are phosphodiester. Other units and linkages are bracketed, terminal groups are in braces. A string of capitals states the bases alone. {NAG37} = tridentate N-acetyl-galactosamine targeting ligand, structure (NAG37)s; [invAb] = inverted abasic unit; m = 2'-O-methyl; f = 2'-fluoro

Experiments:
[1] = test system: ANGPTL3 protein; experiment: Example 4: serum ANGPTL3 protein by ELISA in mice; assay type: in vivo, C57bl/6 mice; conditions: for Avg ANGPTL3 (Average ANGPTL3 Protein Normalized to Pre-Treatment and Control): 1.0 mg/kg single subcutaneous dose on day 1, serum, female C57bl/6 mice
Method: (§1) To assess the in vivo activity of ANGPTL3 RNAi agents that are designed to target additional positions on the ANGPTL3 gene, six- to eight-week-old female C57bl/6 mice were used. Pre-dose serum samples were taken at day −1 after a four hour fast. At day 1, each mouse was given a single subcutaneous administration of 200 μl containing either 1 mg/kg (mpk) or 0.5 mg/kg (mpk) of an ANGPTL3 RNAi agent in D5W (dextrose in 5% water), or control (D5W) with no RNAi agent, according to the dosing groups recited in Table 17.
(§2) Each of the RNAi agents included a modified sequence and an N-acetyl-galactosamine-containing targeting ligand conjugated to the 5′ terminal end of the sense strand. (See Tables 3, 4, and 5 for modified sequences and targeting ligand structures). The injections were performed between the skin and muscle (i.e. subcutaneous injections) into the loose skin over the neck and shoulder area. Three (3) mice in each group were tested (n=3). Serum was collected on days 8, 15, 22, 29, and day 43 (Groups 1-3, 9, and 11-13 only). Mice were fasted for four hours prior to each collection. ANGPTL3 protein levels in serum were measured by ELISA assay (R&D Systems), according to the manufacturer's recommendations. Triglycerides, high-density lipoprotein (HDL), and total cholesterol in serum were measured on a Cobas® Integra 400 (Roche Diagnostics), according to the manufacturer's recommendations.
(§3) The ANGPTL3 protein levels, triglyceride levels, HDL levels, and total cholesterol levels for each animal were normalized. For normalization, the level of ANGPTL3 protein, triglyceride, HDL, and total cholesterol, respectively, for each animal at a time point, was divided by the pre-treatment level of expression in that animal (in this case at day −1) to determine the ratio of expression “normalized to pre-treatment.” Expression at a specific time point was then normalized to the D5W control group by dividing the “normalized to pre-treatment” ratio for an individual animal by the mean “normalized to pretreatment” ratio of all mice in the D5W control group.

[2] = test system: ANGPTL3 gene; experiment: Example 4: serum triglycerides in mice; assay type: in vivo
Method: as §1, §2, §3

[3] = test system: ANGPTL3 gene; experiment: Example 4: serum HDL in mice; assay type: in vivo, C57bl/6 mice
Method: as §1, §2, §3

[4] = test system: ANGPTL3 protein; experiment: Example 7: serum ANGPTL3 protein by ELISA in mice; assay type: in vivo, C57bl/6 mice; design: key: ratio: (level/pre-treatment day -1 level) ÷ mean of D5W control group
Method: (§4) To further assess the in vivo activity of additional ANGPTL3 RNAi agents that are designed to target position 304 on the ANGPTL3 gene, six- to eight-week-old female C57bl/6 mice were used. Pre-dose serum samples were taken at day −1 after a four hour fast. At day 1, each mouse was given a single subcutaneous administration of 200 μl containing 0.5 mg/kg (mpk) of an ANGPTL3 RNAi agent in D5W (dextrose in 5% water), or control (D5W) with no RNAi agent, according to the dosing groups recited in Table 31.
as §2, with “22,” for “22, 29,”, “29.” for “day 43 (Groups 1-3, 9, and 11-13 only).”, “Triglycerides, total cholesterol,” for “Triglycerides,”, “low-density lipoprotein (LDL)” for “total cholesterol”
(§5) The ANGPTL3 protein levels, triglyceride levels, total cholesterol levels, HDL levels, and LDL levels for each animal were normalized. For normalization, the level of ANGPTL3 protein, triglyceride, HDL, and total cholesterol, respectively, for each animal at a time point, was divided by the pre-treatment level of expression in that animal (in this case at day −1) to determine the ratio of expression “normalized to pre-treatment.” Expression at a specific time point was then normalized to the D5W control group by dividing the “normalized to pre-treatment” ratio for an individual animal by the mean “normalized to pretreatment” ratio of all mice in the D5W control group.

[5] = test system: ANGPTL3 gene; experiment: Example 7: serum triglycerides in mice; assay type: in vivo, C57bl/6 mice; design: key: ratio: (level/pre-treatment day -1 level) ÷ mean of D5W control group
Method: as §4
as §2, with “22,” for “22, 29,”, “29.” for “day 43 (Groups 1-3, 9, and 11-13 only).”, “Triglycerides, total cholesterol,” for “Triglycerides,”, “low-density lipoprotein (LDL)” for “total cholesterol”
as §5

[6] = test system: ANGPTL3 gene; experiment: Example 7: serum total cholesterol in mice; assay type: in vivo, C57bl/6 mice; design: key: ratio: (level/pre-treatment day -1 level) ÷ mean of D5W control group
Method: as §4
as §2, with “22,” for “22, 29,”, “29.” for “day 43 (Groups 1-3, 9, and 11-13 only).”, “Triglycerides, total cholesterol,” for “Triglycerides,”, “low-density lipoprotein (LDL)” for “total cholesterol”
as §5

[7] = test system: ANGPTL3 gene; experiment: Example 7: serum HDL in mice; assay type: in vivo; design: key: ratio: (level/pre-treatment day -1 level) ÷ mean of D5W control group; conditions: 0.5 mg/kg single SC injection day 1, female C57bl/6 mice, n=3, ratio to D5W control
Method: as §4
as §2, with “22,” for “22, 29,”, “29.” for “day 43 (Groups 1-3, 9, and 11-13 only).”, “Triglycerides, total cholesterol,” for “Triglycerides,”, “low-density lipoprotein (LDL)” for “total cholesterol”
as §5

[8] = test system: ANGPTL3 gene; experiment: Example 7: serum LDL in mice; assay type: in vivo; design: key: ratio: (level/pre-treatment day -1 level) ÷ mean of D5W control group; conditions: 0.5 mg/kg single SC injection day 1, female C57bl/6 mice, n=3, ratio to D5W control
Method: as §4
as §2, with “22,” for “22, 29,”, “29.” for “day 43 (Groups 1-3, 9, and 11-13 only).”, “Triglycerides, total cholesterol,” for “Triglycerides,”, “low-density lipoprotein (LDL)” for “total cholesterol”
as §5

[9] = Day 8, 1.0 mg/kg single subcutaneous dose on day 1, female C57bl/6 mice
[10] = Day 15, 1.0 mg/kg single subcutaneous dose on day 1, female C57bl/6 mice
[11] = Day 22, 1.0 mg/kg single subcutaneous dose on day 1, female C57bl/6 mice
[12] = Day 29, 1.0 mg/kg single subcutaneous dose on day 1, female C57bl/6 mice
[13] = Day 43, 1.0 mg/kg single subcutaneous dose on day 1, female C57bl/6 mice
[14] = Day 8, 1.0 mg/kg single SC injection on day 1, n=3
[15] = Day 15, 1.0 mg/kg single SC injection on day 1, n=3
[16] = Day 22, 1.0 mg/kg single SC injection on day 1, n=3
[17] = Day 29, 1.0 mg/kg single SC injection on day 1, n=3
[18] = Day 43, 1.0 mg/kg single SC injection on day 1, n=3
[19] = Day 8, 0.5 mg/kg single SC injection on day 1, n=3
[20] = Day 15, 0.5 mg/kg single SC injection on day 1, n=3
[21] = Day 22, 0.5 mg/kg single SC injection on day 1, n=3
[22] = Day 29, 0.5 mg/kg single SC injection on day 1, n=3

Row | Substance | Avg ANGPTL3 (Average ANGPTL3 Protein Normalized to Pre-Treatment and Control) ([1]; Day 8) | Avg ANGPTL3 (Average ANGPTL3 Protein Normalized to Pre-Treatment and Control) ([1]; Day 15) | Avg ANGPTL3 (Average ANGPTL3 Protein Normalized to Pre-Treatment and Control) ([1]; Day 22) | Avg ANGPTL3 (Average ANGPTL3 Protein Normalized to Pre-Treatment and Control) ([1]; Day 29) | Avg ANGPTL3 (Average ANGPTL3 Protein Normalized to Pre-Treatment and Control) ([1]; Day 43) | Avg TG (Average Triglycerides Normalized to Pre-Treatment and Control) [2, 9] | Avg TG (Average Triglycerides Normalized to Pre-Treatment and Control) [2, 10] | Avg TG (Average Triglycerides Normalized to Pre-Treatment and Control) [2, 11] | Avg TG (Average Triglycerides Normalized to Pre-Treatment and Control) [2, 12] | Avg TG (Average Triglycerides Normalized to Pre-Treatment and Control) [2, 13] | Avg HDL, normalized to pre-treatment and control [3, 14] | Avg HDL, normalized to pre-treatment and control [3, 15] | Avg HDL, normalized to pre-treatment and control [3, 16] | Avg HDL, normalized to pre-treatment and control [3, 17] | Avg HDL, normalized to pre-treatment and control [3, 18] | Avg ANGPTL3, normalized to pre-treatment and control [4, 19] | Avg ANGPTL3, normalized to pre-treatment and control [4, 20] | Avg ANGPTL3, normalized to pre-treatment and control [4, 21] | Avg ANGPTL3, normalized to pre-treatment and control [4, 22] | Avg TG, normalized to pre-treatment and control [5, 19] | further results
1 | AD05488: RNAi agent duplex: antisense AM07235-AS, sense AM07234-SS (antisense mU*fA*mC*fUmGfAmUfCmAfAmAfUmAfUmGfUmUfGmAfG*mC; sense {NAG37}*[invAb]*mGmCmUmCmAmAmCmAfUfAfUmUmUmGmAmUmCmAmGmUmA*[invAb]) | 0.090 | 0.070 | 0.092 | 0.124 | 0.254 | 0.624 | 0.795 | 0.837 | 0.721 | 0.901 | 0.839 | 0.644 | 0.727 | 0.771 | 0.833 | 0.339 | 0.379 | 0.346 | 0.469 | 0.856 | ANGPTL3 protein normalized to pre-treatment and control ([1]; day 15, single 1 mg/kg subcutaneous, C57bl/6 mice): 0.070; ANGPTL3 protein normalized to pre-treatment and control ([1]; day 22, single 1 mg/kg subcutaneous, C57bl/6 mice): 0.092; knockdown of ANGPTL3 protein ([1]; days 15 and 22, single 1 mg/kg subcutaneous, C57bl/6 mice): greater than 90%; Avg TG, normalized to pre-treatment and control [5, 20]: 0.947; Avg TG, normalized to pre-treatment and control [5, 21]: 0.922; Avg TG, normalized to pre-treatment and control [5, 22]: 0.877; Avg Total Chol, normalized to pre-treatment and control [6, 19]: 0.802; Avg Total Chol, normalized to pre-treatment and control [6, 20]: 0.810; Avg Total Chol, normalized to pre-treatment and control [6, 21]: 0.810; Avg Total Chol, normalized to pre-treatment and control [6, 22]: 0.906; Avg HDL, normalized to pre-treatment and control ([7]; Day 8): 0.783; Avg HDL, normalized to pre-treatment and control ([7]; Day 15): 0.793; Avg HDL, normalized to pre-treatment and control ([7]; Day 22): 0.780; Avg HDL, normalized to pre-treatment and control ([7]; Day 29): 0.886; Avg LDL, normalized to pre-treatment and control ([8]; Day 8): 0.953; Avg LDL, normalized to pre-treatment and control ([8]; Day 15): 0.825; Avg LDL, normalized to pre-treatment and control ([8]; Day 22): 0.860; Avg LDL, normalized to pre-treatment and control ([8]; Day 29): 1.055
2 | AD05418: RNAi agent duplex: antisense AM07159-AS, sense AM07158-SS (antisense mU*fU*mU*fGmAfAmUfUmAfAmUfGmUfCmCfAmUfGmGfG*mU; sense {NAG37}*[invAb]*mAmCmCmCmAmUmGmGfAfCfAmUmUmAmAmUmUmCmAmAmA*[invAb]) | 0.258 | 0.270 | 0.387 | 0.407 | 0.847 | 0.858 | 1.065 | 1.079 | 0.980 | 0.892 | 0.828 | 0.730 | 0.846 | 0.845 | 1.018 | 0.534 | 0.565 | 0.639 | 0.758 | 0.830 | Avg TG, normalized to pre-treatment and control [5, 20]: 0.655; Avg TG, normalized to pre-treatment and control [5, 21]: 0.815; Avg TG, normalized to pre-treatment and control [5, 22]: 0.586; Avg Total Chol, normalized to pre-treatment and control [6, 19]: 0.950; Avg Total Chol, normalized to pre-treatment and control [6, 20]: 0.878; Avg Total Chol, normalized to pre-treatment and control [6, 21]: 0.926; Avg Total Chol, normalized to pre-treatment and control [6, 22]: 1.023; Avg HDL, normalized to pre-treatment and control ([7]; Day 8): 0.907; Avg HDL, normalized to pre-treatment and control ([7]; Day 15): 0.857; Avg HDL, normalized to pre-treatment and control ([7]; Day 22): 0.910; Avg HDL, normalized to pre-treatment and control ([7]; Day 29): 1.048; Avg LDL, normalized to pre-treatment and control ([8]; Day 8): 1.160; Avg LDL, normalized to pre-treatment and control ([8]; Day 15): 0.928; Avg LDL, normalized to pre-treatment and control ([8]; Day 22): 0.950; Avg LDL, normalized to pre-treatment and control ([8]; Day 29): 1.131
